Data reported in publication PMC4575030 (PLoS ONE, 2015).

Experiments:
[1] = Terminal plasma and brain concentrations after behavioral testing; type: in vivo, rat
[2] = system: naïve rats; experiment: Open field activity (basic movement); type: in vivo, rat; settings: formalin-naïve rats
Description: Basic movement was measured using the Photobeam Activity System Open Field (San Diego Instruments, San Diego, CA) equipped with 48 infrared photocell emitters and detectors. Photobeams used to measure vertical movement were positioned 14 cm above the test chamber floor. Each testing chamber was made of Plexiglas (41 x 41 x 36 cm) and was devoid of any bedding. At the beginning of the test session, each animal was placed in a separate testing chamber and the room lights were turned off. Basic movement was measured for 30 minutes.

[3] = system: rat CFA model of pain; experiment: CFA-induced thermal hyperalgesia; type: in vivo; settings: 120 min after dosing, 24 h after CFA
Description: CFA-induced thermal hyperalgesia was measured using the Thermal Plantar Analgesia Instrument (Ugo Basile, Italy). Intensity of the radiant heat stimulus was adjusted to achieve a withdrawal latency of approximately 13 s in naïve animals. On test day one, animals were placed on the apparatus in their individual testing chambers with an absorbent towel at the bottom and allowed to habituate for at least 30 minutes. The towel was then removed and animals were allowed to acclimate for at least 15 minutes more. After habituation, animals were placed back in their home cages until the following day. On test day two, animals were placed back in the testing chambers until calm (typically 20 minutes). The thermal device was positioned on the center of the left hind paw and the test was started. The time for the animal to withdraw its paw from the thermal stimulus was recorded. A cut-off of 30 seconds was used to prevent tissue damage. Few trials went past 20 seconds and none past 25 seconds. This procedure was repeated for three trials per animal, each separated by at least 5 min, and trials were averaged to determine baseline withdrawal latencies. After determining baseline measures, each animal received an injection of 50 μl CFA (1:1 emulsion with PBS, Sigma, St. Louis, MO) into the plantar side of the left hind paw with a 26 gauge needle. Animals were then placed back in their home cages until the following day. Approximately 24 h after the CFA injection, withdrawal latencies to heat were determined as described above. Animals were then randomized based on their Post-CFA baseline score and treated with the test compound or vehicle. […] The experimenter was blinded to drug treatment during this assay. Percent return to baseline latency was used as the endpoint of the assay.

[4] = system: rat spinal nerve ligation model; experiment: Tactile allodynia following spinal nerve ligation (SNL); type: in vivo; settings: 30 mg/kg, 120 min after dosing, day 21 after SNL; not statistically significant (p = 0.99)
Excerpt: A decrease in tactile response threshold, using calibrated von Frey filaments (Stoelting Co., Wood Dale, IL), was used as a measure of tactile allodynia following spinal nerve ligation (SNL). Prior to surgery, each animal underwent baseline testing to determine suitability for the assay. Briefly, animals were placed on a raised platform with a grid meshed floor. The distance between the mesh was ¼”. Once acclimated, each animal received a series of trials according to the up-down method described by Dixon. Animals showing a response to less than 4 g were deemed already sensitive to the stimulus and were removed. A maximal fiber of 15 g was employed as a cut-off threshold. Surgery was then performed with a procedure slightly modified by that reported by Kim and Chung. Briefly, the left L5 spinal nerve was carefully isolated from the surrounding tissue. Using 5–0 silk suture, a tight ligature was placed around L5 nerve. Muscle and skin were then closed using 4–0 absorbable suture and wound clips. Animals were allowed to recover and were carefully monitored for seven days to ensure proper healing and ensure there was no mutilation of the affected limb. On day 21 post-surgery, animals were again tested to ensure the development of tactile allodynia. […] Animals were then randomized into groups and dosed with the test compound, gabapentin, or vehicle and assessed as stated above. […]

[5] = system: Aδ-fiber nociceptors; experiment: In vivo teased-fiber recording from tibial nerve after CFA, Aδ-fibers; parameters: species or system rat; settings: i.v. 2.5 mg
Description: A total of 55 adult, male, Sprague–Dawley rats (Harlan, Indianapolis, IN) weighing 300–350 g were used for electrophysiology. To ensure that electrophysiology studies were performed on rats with mechanical hyperalgesia, behavioral measures of mechanical hyperalgesia were obtained before and at 24 h after administration of CFA (and just prior to the electrophysiological studies). Mechanical hyperalgesia was assessed by determining the frequency of paw withdrawal evoked by mechanical stimulation using a 26 g Semmes-Weinstein von Frey monofilament (Stoelting, Wood Dale, IL). Rats were placed on an elevated wire mesh platform under individual plastic cages and acclimated to the testing environment for 30 minutes prior to testing. The monofilament was applied to the mid-plantar surface of the hindpaw ten times for 1–2 s each with an inter-stimulus interval of approximately 5–10 s and the paw withdrawal frequency (percent) was determined. Baseline measures were determined for each rat for three consecutive days prior to injection of CFA. […]
Recordings were made from cutaneous afferent fibers of the left tibial nerve using a teased-fiber approach. […] Teased fibers were placed onto a tungsten wire electrode and action potentials were recorded extracellularly. […] Responses of individual fibers were analyzed off-line using the Spike2 data analysis program (Cambridge Electronic Design, Cambridge, UK). […]

[6] = system: Nav1.7; parameters: method as in PMID 21634377; settings: extrapolated; cited from earlier work

Compound: CC(=O)Nc1cccc(Nc2ncnc(N3CCC(OCc4ccc(OC(F)(F)F)cc4)CC3)n2)c1C [Compound 52, N-(2-methyl-3-((4-(4-((4-(trifluoromethoxy)benzyl)oxy)-1-piperidinyl)-1,3,5-triazin-2-yl)amino)phenyl)acetamide]
- Kp ([1]; brain and plasma, rat, ratio of concentrations measured following the formalin test): 0.3
- Effective [plasma] ([1]; mean terminal plasma concentration at the lowest effective dose in the rat formalin test): 1.93 µM
- Decrease in basic movement ([2]; 3 mg/kg p.o.): 3%
- Decrease in basic movement ([2]; 10 mg/kg p.o., negative value = increase): 11%
- Decrease in basic movement ([2]; 30 mg/kg p.o.): 54%
- Average reversal of thermal hyperalgesia compared to baseline ([3]; 10 mg/kg p.o.): 40%
- Average reversal of thermal hyperalgesia compared to baseline ([3]; 30 mg/kg p.o.): 53%
- Reversal of tactile allodynia compared to the vehicle group [4]: 15%
- Mechanical response thresholds of Aδ-fiber nociceptors [5]: Neither vehicle nor compound 52 altered
- Rate of ongoing spontaneous activity of Aδ-fiber nociceptors [5]: did not reduce the rate of ongoing spontaneous activity
- Preference for inactivated versus non-inactivated Nav1.7 [6]: 100 fold
